Results as given in patent publication US20140005163A1 (NOVARTIS AG, priority 2010, published 2014).

Tests used:
[1] = system: PKB Ser473 phosphorylation in Rat1-myr-HA-p110 alpha cells; assay: Reverse protein array assay, PKB Ser473 phosphorylation in Rat1-myr-p110 alpha cells; type: cell-based; details: 0.5 h, pAkt Ser473, 30 minutes compound incubation, read-out: p-PKB IC50
Method: (§1) The Rat1-myr-HA-p110 alpha, beta and delta cells were trypsinized and counted with a CASY TT cell counter (Schärfe System GmbH, Reutlingen Germany). […] The plates were incubated at 37° C. and 5% CO2 under humidified condition for at least 20 h. Compound of formula I working solutions were prepared freshly as serial 8 step dilutions (vol/vol) in DMSO on the day of the experiment. […] The final DMSO concentration was kept constant at 0.2%. cell culture medium containing 0.2% DMSO was used as vehicle treatment control. Post incubation, the cells were treated with the serial compound dilution. 50 μl of the compound medium mixture was added to the wells containing cells and 150 μl DMEM medium and incubated for 30 minutes (37° C., 5% CO2). After 30 minutes of incubation, the medium mixture was quickly removed by aspiration. […] 50 μl of the described lysis buffer mix was added to each well, followed by 10 minutes of incubation on ice.
(§2) The samples were spotted onto ZeptoMARKt PWG protein microarray chips (Zeptosens, Witterswil, Switzerland) with the piezoelectric microdispense-based, non-contact Nano-Plotter 2.1 (GeSiM, Grosserkmannsdorf, Germany). Each sample was spotted at 4 different sample concentrations (d1=100%, d2=75%, d3=50%, d4=25%) by diluting the cell lysate with the corresponding volume of lysis buffer mix. After spotting the ZeptoMARK® protein microarrays, the chips are incubated for 1 hour at 37° C. […] After 20 minutes of blocking the chips are extensively rinsed with deionized water (Milli-Q quality, 18MΩ×cm) and dried in a nitrogen air flow.
(§3) After incubation, the arrays were washed twice with 200 μl CAB1 buffer. […] The fluorescence signal was assessed with exposure times of 1, 3, 5 and 10 seconds, depending on the intensity of the signal. The resulting four images taken per array are stored as 16-bit TIF files.
(§4) The fluorescence images for each array were analyzed with the ZeptoVIEW Pro 2.0 software (Zeptosens, Witterswil, Switzerland) and the relative fluorescence intensity for each signal was calculated.

[2] = system: S6 Ribosomal Protein phosphorylation Ser235/236 in TSC1 null mouse embryo fibroblast (MEF) cells; assay: Reverse protein array assay, S6 Ribosomal Protein phosphorylation Ser235/236 in TSC1 null MEF cells; type: cell-based; details: 1 h, pS6 ribosomal protein Ser235/236, 60 minutes incubation, read-out: p-S6 IC50
Method: as §1, with “TSC1−/−” for “Rat1-myr-HA-p110 alpha, beta and delta”, “(Schirfe” for “(Schärfe”, “Working” for “Compound of formula I working”, “0.02%.” for “0.2%.”, “0.02%” for “0.2%”, “60” for “30”
The spotting of the chips follows the previous described method.

[3] = system: PKB Ser473 phosphorylation in Rat1-myr-HA-p110 beta cells; assay: Reverse protein array assay, PKB Ser473 phosphorylation in Rat1-myr-p110 beta cells; type: cell-based; details: 0.5 h, pAkt Ser473, 30 minutes incubation, read-out: p-PKB IC50
Method: as §1, §2, §3, §4

[4] = system: PKB Ser473 phosphorylation in Rat1-myr-HA-p110 delta cells; assay: Reverse protein array assay, PKB Ser473 phosphorylation in Rat1-myr-p110 delta cells; type: cell-based; details: read-out: p-PKB IC50
Method: as §1, §2, §3, §4

mTOR = target: T1, mTOR (Homo sapiens, UniProt P42345); assay: Biochemical assay for m-TOR by TR-FRET; details: 8 μM ATP, 400 nM GFP-4EBP1, 0.5 nM mTOR
T1 construct: purchased Invitrogen Corporation (Carlsbad/CA, USA) PV4753
Method: Biochemical Assay for m-TOR by TR-FRET.
Assay components are purchased from Invitrogen Corporation (Carlsbad/CA, USA): GFP-4EBP1 (Cat. No. PV4759), Tb3+-α-p4EBP1 [pThr46] Antibody (Cat. No. PV4757), proprietary TR-FRET dilution buffer (Cat. No. PV3574), mTOR protein (Cat. No. PV4753).
Then 5 μL of ATP (8 μM final concentration) and GFP-4EBP1 (400 nM final concentration) with 5 μL mTOR proteins (0.5 nM final concentration) are incubated at rt. The standard reaction buffer for the TR-FRET mTOR assay contained 50 mM HEPES pH 7.5, 10 mM MnCl2, 50 mM NaCl, 1 mM EGTA, 1 mM DTT. Reactions were stopped with 10 μL of a mixture of EDTA containing the Tb3+-α-p4EBP1-[pT46] detection Ab (0.5 nM) in TR-FRET dilution buffer (proprietary to IVG). Plates are read 15 mins later in a Synergy2 reader using an integration time of 0.2 seconds and a delay of 0.1 seconds. […] A standard compound is used as a reference compound and included in all assay plates in the form of 16 dilution points in duplicate.

PI3K alpha = target: T2, PI3K alpha (Homo sapiens, UniProt P42336); assay: PI3K alpha kinase assay (Kinase-Glo luminescence); type: biochemical
T2 construct: p85(iSH2) fusion partner (see partner chain) (N); His tag (C); made in house; host or cells: baculovirus; Tn5 (Trichoplusia ni) or TiniPro insect cells
Method: In a more preferred assay, the kinase reaction is performed in a final volume of 10 μL per well of a low volume non binding CORNING, 384 well black plate (Cat. No. #3676). The final concentrations of ATP and phosphatidyl inositol (PI) in the assay are 1 μM and 10 μg/mL respectively. The reaction is started by the addition of ATP.
The components of the assay are added per well as follows:
[…] in 90% DMSO per well, in columns 1-20, 8 concentrations (1/3 and 1/3.33 serial dilution step) in single. • Low control: […] of 90% DMSO in half the wells of columns 23-24 (0.45% in final). • High control: […] of reference compound (e.g. compound of Example 7 in WO 2006/122806) in the other half of columns 23-24 (2.5 μM in final). • Standard: […] of reference compound as just mentioned diluted as the test compounds in columns 21-22 • 20 mL ‘buffer’ are prepared per assay: • 200 μL of 1M TRIS HCl pH7.5 (10 mM in final) • 60 μL of 1M MgCl2 (3 mM in final) • 500 μL of 2M NaCl (50 mM in final) • 100 μL of 10% CHAPS (0.05% in final) • 200 μL of 100 mM DTT (1 mM in final) • 18.94 mL of nanopure water • 10 mL ‘PI’ are prepared per assay: • 200 μL of 1 mg/ml L-alpha-Phosphatidylinositol (Liver Bovine, Avanti Polar Lipids Cat. No. 840042C MW=909.12) prepared in 3% OctylGlucoside (10 μg/ml in final) • 9.8 mL of ‘buffer’ • 10 mL ‘ATP’ are prepared per assay: • 6.7 μL of 3 mM stock of ATP giving a final concentration of 1 μM per well • 10 mL of ‘buffer’ • 2.5 mL of each PI3K construct are prepared per assay in ‘PI’ with the following final concentration: • 10 nM PI3K alfa EMV B1075 • 25 nM beta EMV BV949 • 10 nM delta EMV BV1060 • 150 nM gamma EMV BV950 • 5 μL of ‘PI/PI3K’ are added per well. • 5 μl ‘ATP’ are added per well to start the reaction. • The plates are then incubated at room temperature for 60 minutes (alfa, beta, delta) or 120 minutes (gamma). • The reaction is terminated by the addition of 10 μL Kinase-Glo (Promega Cat. No. #6714). • The assay plates are read after 10 minutes in Synergy 2 reader (BioTek, Vermont USA) with an integration time of 100 milliseconds and sensitivity set to 191. • Output: The High control is around 60'000 counts and the Low control is 30'000 or lower • This luminescence assay gives a useful Z′ ratio between 0.4 and 0.7
Two different constructs, BV 1052 and BV 1075, are used to generate the PI3 Kinase a proteins for compound screening.
IC50 is determined by a four parameter curve fitting routine that comes along with “excel fit”. […] Alternatively, IC50 values are calculated using idbsXLfit model 204, which is a 4 parameter logistic model.

T1 sequence (P42345 1360-2549 limits assumed): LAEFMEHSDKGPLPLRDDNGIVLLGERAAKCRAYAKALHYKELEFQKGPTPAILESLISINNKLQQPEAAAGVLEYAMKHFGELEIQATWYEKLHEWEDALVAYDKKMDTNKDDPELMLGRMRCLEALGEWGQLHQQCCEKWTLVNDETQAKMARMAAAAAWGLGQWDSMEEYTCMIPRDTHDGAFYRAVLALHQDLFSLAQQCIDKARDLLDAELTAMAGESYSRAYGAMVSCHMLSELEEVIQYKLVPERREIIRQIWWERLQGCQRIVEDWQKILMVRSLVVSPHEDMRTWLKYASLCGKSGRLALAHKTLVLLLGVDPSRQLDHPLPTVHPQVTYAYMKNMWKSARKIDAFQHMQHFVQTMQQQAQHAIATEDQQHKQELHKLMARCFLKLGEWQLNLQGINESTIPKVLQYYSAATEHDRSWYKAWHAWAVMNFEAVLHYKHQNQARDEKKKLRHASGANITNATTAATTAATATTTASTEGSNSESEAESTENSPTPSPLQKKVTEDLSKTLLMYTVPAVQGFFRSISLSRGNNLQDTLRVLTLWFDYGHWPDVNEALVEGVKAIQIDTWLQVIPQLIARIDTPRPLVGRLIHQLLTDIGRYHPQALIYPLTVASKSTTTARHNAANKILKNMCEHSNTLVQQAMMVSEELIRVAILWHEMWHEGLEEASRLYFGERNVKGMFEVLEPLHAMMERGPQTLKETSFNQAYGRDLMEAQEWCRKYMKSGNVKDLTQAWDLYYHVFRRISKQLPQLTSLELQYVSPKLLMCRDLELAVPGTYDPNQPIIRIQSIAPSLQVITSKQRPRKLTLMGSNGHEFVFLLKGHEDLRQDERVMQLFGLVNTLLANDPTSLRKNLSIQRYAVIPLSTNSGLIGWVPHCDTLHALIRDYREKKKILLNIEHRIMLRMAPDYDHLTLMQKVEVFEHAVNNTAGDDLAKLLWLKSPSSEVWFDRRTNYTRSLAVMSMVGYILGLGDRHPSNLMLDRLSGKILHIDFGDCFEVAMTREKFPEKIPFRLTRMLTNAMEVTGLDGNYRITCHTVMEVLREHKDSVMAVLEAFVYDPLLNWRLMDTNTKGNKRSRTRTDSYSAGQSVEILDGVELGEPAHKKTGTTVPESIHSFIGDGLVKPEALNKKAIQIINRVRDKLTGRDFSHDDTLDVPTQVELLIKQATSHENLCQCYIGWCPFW
T2 sequence (P42336 with tags, fused parts or gaps limits assumed): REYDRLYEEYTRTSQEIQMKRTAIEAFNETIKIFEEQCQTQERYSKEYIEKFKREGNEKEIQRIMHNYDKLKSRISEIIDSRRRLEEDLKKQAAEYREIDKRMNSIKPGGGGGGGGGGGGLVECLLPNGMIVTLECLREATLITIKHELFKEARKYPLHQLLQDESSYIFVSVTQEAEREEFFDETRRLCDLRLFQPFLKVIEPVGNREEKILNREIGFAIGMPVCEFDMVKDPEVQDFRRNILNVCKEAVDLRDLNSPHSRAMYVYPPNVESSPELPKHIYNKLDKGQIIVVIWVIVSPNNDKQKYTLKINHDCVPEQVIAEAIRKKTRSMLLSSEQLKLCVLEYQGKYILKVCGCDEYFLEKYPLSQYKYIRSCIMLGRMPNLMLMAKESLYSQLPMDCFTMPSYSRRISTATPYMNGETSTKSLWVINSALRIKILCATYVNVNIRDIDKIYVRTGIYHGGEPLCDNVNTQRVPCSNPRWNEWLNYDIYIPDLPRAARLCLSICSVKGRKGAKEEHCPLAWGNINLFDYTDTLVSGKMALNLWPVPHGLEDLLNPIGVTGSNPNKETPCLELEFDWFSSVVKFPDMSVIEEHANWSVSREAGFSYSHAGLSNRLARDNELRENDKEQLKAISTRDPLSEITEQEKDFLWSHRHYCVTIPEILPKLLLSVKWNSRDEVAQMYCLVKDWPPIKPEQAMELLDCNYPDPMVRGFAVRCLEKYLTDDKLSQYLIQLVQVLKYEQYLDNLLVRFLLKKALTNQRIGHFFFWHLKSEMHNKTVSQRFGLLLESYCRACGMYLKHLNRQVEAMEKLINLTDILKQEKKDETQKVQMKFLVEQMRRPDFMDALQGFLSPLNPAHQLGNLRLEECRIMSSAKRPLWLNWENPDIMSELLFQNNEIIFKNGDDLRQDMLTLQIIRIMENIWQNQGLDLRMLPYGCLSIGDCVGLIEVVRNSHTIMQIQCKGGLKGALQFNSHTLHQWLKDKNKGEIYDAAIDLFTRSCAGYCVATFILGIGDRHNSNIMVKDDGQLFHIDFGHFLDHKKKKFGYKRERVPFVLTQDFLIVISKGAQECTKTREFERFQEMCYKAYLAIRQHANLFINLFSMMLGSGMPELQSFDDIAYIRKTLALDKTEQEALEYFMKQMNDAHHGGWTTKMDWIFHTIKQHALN

| Compound | IC50 [1] [nM] | IC50 [3] [nM] | IC50 [4] [nM] | IC50 (mTOR) [nM] | IC50 (PI3K alpha) [nM] | IC50 [2] [nM] |
| --- | --- | --- | --- | --- | --- | --- |
| Cc1nn(CC(=O)N2CCCC2)cc1-n1c(=O)n(C)c2cnc3ccc(-c4cnc(N5CCCC5)nc4)cc3c21 [Example 247.4, 3-Methyl-1-[3-methyl-1-(2-oxo-2-pyrrolidin-1-yl-ethyl)-1H-pyrazol-4-yl)-8-(2-pyrrolidin-1-yl-pyrimidin-5-yl)-1,3-dihydro-imidazo[4,5-c]quinolin-2-one] | 44 | 41 | 106 | 34 | – | 4 |
| CCN(C)C(=O)Cn1cc(-n2c(=O)n(C)c3cnc4ccc(-c5ccc(-n6cccn6)cc5)cc4c32)c(C)n1 [Example 51.6, N-Ethyl-N-methyl-2-{3-methyl-4-[3-methyl-2-oxo-8-(4-pyrazol-1-yl-phenyl)-2,3-dihydro-imidazo[4,5-c]quinolin-1-yl]pyrazol-1-yl}-acetamide] | 12 | 12 | 15 | 27 | 61 | < 0.5 |
| CCC(O)(CC)c1cncc(-c2ccc3ncc4c(c3c2)n(-c2cn(C)nc2C)c(=O)n4C)c1 [Example 216, 1-(1,3-Dimethyl-1H-pyrazol-4-yl)-8-[5-(1-ethyl-1-hydroxy-propyl)-pyridin-3-yl]-3-methyl-1,3-dihydro-imidazo[4,5-c]quinolin-2-one] | 10 | 57 | 56 | 4 | – | < 0.5 |
| COCc1ncc(-c2ccc3ncc4c(c3c2)n(-c2cn(C)nc2Cl)c(=O)n4C)cc1OC [Example 195.4, 1-(3-Chloro-1-methyl-1H-pyrazol-4-yl)-8-(5-methoxy-6-methoxymethyl-pyridin-3-yl)-3-methyl-1,3-dihydro-imidazo[4,5-c]quinolin-2-one] | 20 | 23 | 21 | 8 | – | 2 |
| CCNc1cc(-c2ccc3ncc4c(c3c2)n(-c2c(C)noc2C)c(=O)n4C)cnc1Cl [Example 153.3, 8-(6-Chloro-5-ethylamino-pyridin-3-yl)-1-(3,5-dimethyl-isoxazol-4-yl)-3-methyl-1,3-dihydro-imidazo[4,5-c]quinolin-2-one] | 34 | 55 | 112 | 665 | – | 36 |

Further lines, with some results ahead:

| IC50 [1] [nM] | IC50 [3] [nM] | IC50 [4] [nM] | IC50 (mTOR) [nM] | IC50 (PI3K alpha) [nM] | Compound | IC50 [2] [nM] |
| --- | --- | --- | --- | --- | --- | --- |
| 8 | 9 | 15 | 6 | – | CCn1cc(-n2c(=O)n(C)c3cnc4ccc(-c5ccc(-n6cccn6)cc5)cc4c32)c(C)n1 [Example 51.3, 1-(1-Ethyl-3-methyl-1H-pyrazol-4-yl)-3-methyl-8-(4-pyrazol-1-yl-phenyl)-1,3-dihydro-imidazo[4,5-c]quinolin-2-one] | 2 |
| 13 | 13 | 5 | 13 | – | CNc1ncc(-c2ccc3ncc4c(c3c2)n(-c2cn(C)nc2C)c(=O)n4C)cn1 [Example 80.1, 1-(1,3-Dimethyl-1H-pyrazol-4-yl)-3-methyl-8-(2-methylamino-pyrimidin-5-yl)-1,3-dihydro-imidazo[4,5-c]quinolin-2-one] | 3 |
| 175 | 240 | 636 | 28 | 163 | Cc1nn(CC(=O)N2CCOCC2)cc1-n1c(=O)n(C)c2cnc3ccc(-c4cnc(N5CCCC5)nc4)cc3c21 [Example 247.3, 3-Methyl-1-[3-methyl-1-(2-morpholin-4-yl-2-oxo-ethyl)-1H-pyrazol-4-yl]-8-(2-pyrrolidin-1-yl-pyrimidin-5-yl)-1,3-dihydro-imidazo[4,5-c]quinolin-2-one] | 35 |
